Results from article PMC7315563, “Bioactive fluorenes. Part III: 2,7-dichloro-9H-fluorene-based thiazolidinone and azetidinone analogues as anticancer and antimicrobial against multidrug resistant strains agents” (BMC Chemistry, 2020).
Values after ≈ are worked out from the molar mass of the structure shown. Like-named read-outs stand apart in the source and are kept apart here.

Experiments:
[1] = test system: K. pneumoniae; assay: MIC by broth microdilution method (resazurin end point); type: cell-based; conditions: Klebsiella pneumoniae, 24 h at 37 °C
Description: (§1) Determination of Minimum inhibitory concentrations (MIC) of flourene derivatives was done using broth microdilution method. The procedure involved preparation of twofold dilutions of the fluorene derivatives ranging from (500–7.8 μg/mL) in sterile Mueller–Hinton broth inside the wells of 96-well microplate (Sarstedt, Germany). The inoculums of test strains prepared from fresh overnight cultures were adjusted to 0.5 McFarland standards, which equals to 1–2 × 10^8 CFU/mL for bacteria, the procedure was done according to CLSI 2012 [42]. […] For this assay the positive control agents were vancomycin (range: 0.7–50 μg/mL), gentamicin (range: 0.15–10 μg/mL) and the negative control was 1% DMSO.
(§2) For proper determination of the MIC end point resazurin dye has been used. A stock solution of resazurin sodium salt powder (Titan Biotech) was prepared at 0.02% (wt/vol) in distilled water, sterilized by filtration through a […] filter into a sterile light protected container then stored protected from light at 4 °C for up to 1 week, or at − […] for long term use, then 10–15% resazurin solution of the total volume in wells was added to each well and incubation for 1–4 h at 37 °C was done. A change in color from blue to pink indicates the growth of bacteria, and MIC was defined as the lowest concentration of the drug that prevented this change in color.

[2] = test system: E. coli; assay: as above; type: cell-based; conditions: Escherichia coli, 24 h at 37 °C
Description: as §1, §2

[3] = test system: P. aeruginosa; assay: as above; type: cell-based; conditions: Pseudomonas aeruginosa, 24 h at 37 °C
Description: as §1, §2

[4] = test system: Pseudomonas aeruginosa (P. aeruginosa), multidrug resistant clinical isolate; assay: agar well diffusion assay; type: cell-based; conditions: 24 h; for zone of inhibition at 500 µg/mL: 500 µg/mL of tested compound
Outline: (§3)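 Multidrug-resistant clinical isolates swabbed on Mueller–Hinton agar at about 1–5 × 10^5 CFU/mL; 0.5 cm wells received 50 μL compound at 500 μg/mL in 1% DMSO. Incubation 24 h, 37 °C for bacteria and C. albicans, 25 °C for Aspergillus; inhibition zone diameter measured in mm.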

[5] = test system: Acinetobacter baumannii (A. baumannii), multidrug resistant clinical isolate; assay: agar well diffusion assay; type: cell-based; conditions: 24 h, PC positive control Gentamicin 10 µg/mL
Outline: as §3

[6] = test system: Escherichia coli (E. coli), multidrug resistant clinical isolate; assay: agar well diffusion assay; type: cell-based; conditions: 24 h; for zone of inhibition at 500 µg/mL: 500 µg/mL of tested compound
Outline: as §3

[7] = test system: Klebsiella pneumoniae (K. pneumoniae), multidrug resistant clinical isolate; assay: agar well diffusion assay; type: cell-based; conditions: 24 h
Outline: as §3

[8] = test system: MRSA; assay: MIC by broth microdilution method (resazurin end point); type: cell-based; conditions: Staphylococcus aureus
Description: as §1, §2

[9] = test system: S. aureus; assay: as above; type: cell-based; conditions: Staphylococcus aureus
Description: as §1, §2

[10] = test system: MDA-MB-231 human breast cancer cells; assay: cell viability assay (MTT); type: cell-based; conditions: 24 h; for viability at 1 µg/mL: read-out: Validity (%) for sample concentrations (µg/mL) 1; for viability at 10 µg/mL: read-out: Validity (%) for sample concentrations (µg/mL) 10; for viability at 31.25 µg/mL: read-out: Validity (%) for sample concentrations (µg/mL) 31.25; for viability at 62.5 µg/mL: read-out: Validity (%) for sample concentrations (µg/mL) 62.5; for viability at 125 µg/mL: read-out: Validity (%) for sample concentrations (µg/mL) 125; for viability at 250 µg/mL: read-out: Validity (%) for sample concentrations (µg/mL) 250; for viability at 500 µg/mL: read-out: Validity (%) for sample concentrations (µg/mL) 500
Outline: (§4)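 Seeding at 5000 cells/well in RPMI-1640 plus 10% inactivated FBS; treatment the following day with compound in fresh medium over 0–500 µg/mL; 24 h incubation; MTT viability with absorbance taken at […].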

[11] = test system: WI-38 human normal fibroblast cells; assay: cell viability assay (MTT); type: cell-based; conditions: 24 h; for viability at 31.25 µg/mL: read-out: Validity (%) for sample concentrations (µg/mL) 31.25; for viability at 62.5 µg/mL: 62.50 µg/mL, read-out: Validity (%) for sample concentrations (µg/mL) 62.50; for viability at 125 µg/mL: read-out: Validity (%) for sample concentrations (µg/mL) 125; for viability at 250 µg/mL: read-out: Validity (%) for sample concentrations (µg/mL) 250; for viability at 500 µg/mL: read-out: Validity (%) for sample concentrations (µg/mL) 500
Outline: as §4

[12] = test system: methicillin-resistant Staphylococcus aureus (MRSA); assay: agar well diffusion assay; type: cell-based; conditions: Staphylococcus aureus, 24 h; for zone of inhibition at 500 µg/mL: 500 µg/mL of tested compound
Outline: as §3

[13] = test system: Staphylococcus aureus (S. aureus), multidrug resistant clinical isolate; assay: agar well diffusion assay; type: cell-based; conditions: Staphylococcus aureus, 24 h; for zone of inhibition at 500 µg/mL: S. aureus, 500 µg/mL of tested compound
Outline: as §3

[14] = test system: A549 human lung cancer cells; assay: cell viability assay (MTT); type: cell-based; conditions: 24 h; for viability at 1 µg/mL: read-out: Validity (%) for sample concentrations (µg/mL) 1; for viability at 10 µg/mL: read-out: Validity (%) for sample concentrations (µg/mL) 10; for viability at 31.25 µg/mL: read-out: Validity (%) for sample concentrations (µg/mL) 31.25; for viability at 62.5 µg/mL: 62.50 µg/mL, read-out: Validity (%) for sample concentrations (µg/mL) 62.50; for viability at 125 µg/mL: read-out: Validity (%) for sample concentrations (µg/mL) 125; for viability at 250 µg/mL: read-out: Validity (%) for sample concentrations (µg/mL) 250; for viability at 500 µg/mL: read-out: Validity (%) for sample concentrations (µg/mL) 500; for viability at 1000 µg/mL: read-out: Validity (%) for sample concentrations (µg/mL) 1000
[15] = test system: Streptococcus pneumoniae (S. pneumoniae), multidrug resistant clinical isolate; assay: agar well diffusion assay; type: cell-based; conditions: Streptococcus pneumoniae, 24 h, read-out: Mean zone of inhibition
Outline: as §3

[16] = PC positive control Gentamicin 10 µg/mL
[17] = S. aureus, 24 h at 37 °C, read-out: MIC
[18] = read-out: Mean zone of inhibition

Compound	MIC [2]	MIC [3]	MIC ([8]; 24 h at 37 °C, read-out: MIC)	MIC [9, 17]	viability at 1 µg/mL [10]	viability at 10 µg/mL [10]	viability at 31.25 µg/mL [10]	viability at 62.5 µg/mL [10]	viability at 125 µg/mL [10]	viability at 250 µg/mL [10]	viability at 500 µg/mL [10]	IC50 [10]	viability at 31.25 µg/mL [11]	viability at 62.5 µg/mL [11]	viability at 125 µg/mL [11]	viability at 250 µg/mL [11]	viability at 500 µg/mL [11]	IC50 [11]	zone of inhibition at 500 µg/mL [12]	zone of inhibition at 500 µg/mL [13]	also measured
CNC(C)C1CCC(N)C(OC2C(N)CC(N)C(OC3OCC(C)(O)C(NC)C3O)C2O)O1 (stereo not shown) [Gentamicin, reference compound]	0.3 µg/mL (≈ 0.628 µM)	0.3 µg/mL (≈ 0.628 µM)																			MIC [1]: 0.3 µg/mL (≈ 0.628 µM); zone of inhibition at 10 µg/mL [4, 16]: 30 mm; zone of inhibition at 10 µg/mL [5]: 20 mm; zone of inhibition at 10 µg/mL [6, 16]: 28 mm; zone of inhibition at 10 µg/mL [7, 16]: 20 mm
COc1cc(C2C(Cl)C(=O)N2c2nc(-c3cc(Cl)cc4c3-c3ccc(Cl)cc3C4)cs2)ccc1O (stereo not shown) [6h, 3-chloro-1-(4-(2,7-dichloro-9H-fluoren-4-yl)thiazol-2-yl)-4-(4-hydroxy-3-methoxyphenyl)azetidin-2-one]	31.2 µg/mL (≈ 57.5 µM)		31.2 µg/mL (≈ 57.5 µM)	62.5 µg/mL (≈ 115 µM)	94.3%	90.4%	85.8%	77.8%	73.6%	68.5%	65.8%	> 500 µg/mL	85%	70.6%	60.4%	51.8%	49.4%	487 µg/mL (≈ 895 µM)	15 mm	12 mm	zone of inhibition at 500 µg/mL [4]: 8 mm; zone of inhibition at 500 µg/mL [6]: 22 mm; zone of inhibition at 500 µg/mL ([7]; 500 µg/mL of tested compound): 3 mm; melting point: 95 to 97 °C; viability at 1 µg/mL [14]: 89.5%; viability at 10 µg/mL [14]: 80.9%; viability at 31.25 µg/mL [14]: 79%; viability at 62.5 µg/mL [14]: 75.8%; viability at 125 µg/mL [14]: 63.5%; viability at 250 µg/mL [14]: 37.9%; viability at 500 µg/mL [14]: 33%; viability at 1000 µg/mL [14]: 30.3%; IC50 [14]: 192 µg/mL (≈ 353 µM)
CN[C@H](CC(C)C)C(=O)N[C@H]1C(=O)N[C@@H](CC(N)=O)C(=O)N[C@H]2C(=O)N[C@H]3C(=O)N[C@H](C(=O)N[C@H](C(=O)O)c4cc(O)cc(O)c4-c4cc3ccc4O)[C@H](O)c3ccc(c(Cl)c3)Oc3cc2cc(c3O[C@@H]2O[C@H](CO)[C@@H](O)[C@H](O)[C@H]2O[C@H]2C[C@](C)(N)[C@H](O)[C@H](C)O2)Oc2ccc(cc2Cl)[C@H]1O [Vancomycin, reference compound]																					MIC ([8]; 24 h): 0.7 µg/mL (≈ 0.483 µM); MIC ([9]; 24 h): 0.7 µg/mL (≈ 0.483 µM); zone of inhibition at 50 µg/mL [12, 18]: 26 mm; zone of inhibition at 50 µg/mL [13, 18]: 28 mm; zone of inhibition at 50 µg/mL [15]: 20 mm
O=C1C(Cl)C(c2ccc[nH]2)N1c1nc(-c2cc(Cl)cc3c2-c2ccc(Cl)cc2C3)cs1 (stereo not shown) [6l, 3-Chloro-1-(4-(2,7-dichloro-9H-fluoren-4-yl)thiazol-2-yl)-4-(1H-pyrrol-2-yl)azetidin-2-one]	31.2 µg/mL (≈ 64.2 µM)	125 µg/mL (≈ 257 µM)	31.2 µg/mL (≈ 64.2 µM)	31.2 µg/mL (≈ 64.2 µM)	96.9%	90.4%	85.5%	71.9%	69.8%	66.7%	60.9%	> 500 µg/mL	94%	76.4%	70.2%	52.5%	39%	350 µg/mL (≈ 719 µM)	15 mm	15 mm	zone of inhibition at 500 µg/mL [4]: 8 mm; zone of inhibition at 500 µg/mL [6]: 22 mm; melting point: 105 to 107 °C; viability at 1 µg/mL [14]: 85%; viability at 10 µg/mL [14]: 72.2%; viability at 31.25 µg/mL [14]: 58.1%; viability at 62.5 µg/mL [14]: 53.6%; viability at 125 µg/mL [14]: 43.1%; viability at 250 µg/mL [14]: 34%; viability at 500 µg/mL [14]: 30.3%; viability at 1000 µg/mL [14]: 27.9%; IC50 [14]: 95 µg/mL (≈ 195 µM)
